These results are taken from patent US20240238265A1 (priority 2020, published 2024).

The structures appear in SMILES notation. Counter-ions that a name gives are not always drawn. A value given as a limit tells only on which side of the number the result lay.

The subject of series [1] is pseudotyped VSV expressing EBOV glycoprotein. Description: microbe, parasite or virus in culture. The class given is cell-based, Ebola virus (EBOV). The note with it: Zaire ebolavirus, Vero, 24 h, read-out: EC50 (uM) Pseudotype Assays EBOV.
For series [2] the following is noted: 1 h, pH 7.4.
The conditions of series [3]: 1 h, pH 7.4. The source holds these as a separate data set.
The subject of series [4] is pseudotyped VSV expressing MARV glycoprotein. Description: microbe, parasite or virus in culture. The conditions noted are these: Vesicular stomatitis virus, Vero, 24 h, read-out: EC50 (uM) Pseudotype Assays MARV. The class given is cell-based, Marburg virus (MARV).
Series [5] concerns pseudotyped VSV expressing BDBV glycoprotein. Description: microbe, parasite or virus in culture. The format is cell-based, Bundibugyo virus (BDBV). The conditions noted are these: Vesicular stomatitis virus, Vero, 24 h, read-out: EC50 (uM) Pseudotype Assays BDBV.
The conditions of series [6]: 1 h, pH 7.4. This is another data set of the same source.
For series [7] the following is noted: 1 h, pH 7.4. The source holds these as a separate data set.
A short description of series [8]: in vitro. The conditions noted are these: African green monkey.
The subject of series [9] is pseudotyped VSV expressing SUDV glycoprotein. Description: microbe, parasite or virus in culture. The class given is cell-based, Sudan virus (SUDV). The conditions noted are these: Vesicular stomatitis virus, Vero, 24 h, read-out: EC50 (uM) Pseudotype Assays SUDV.
Series [10] has as its system EBOV-Zaire. Description: microbe, parasite or virus in culture. The format is cell-based, Ebola virus (EBOV).
The test system of series [11] is SUDV-Gulu. Description: microbe, parasite or virus in culture. The format is cell-based, Sudan virus (SUDV).
The conditions of series [12]: 1 h, pH 7.4. The source holds these as a separate data set.
The conditions of series [13]: 1 h, pH 7.4. The source holds these as a separate data set.
For series [14], the system named is WT EBOV-Mayinga. Description: microbe, parasite or virus in culture. The conditions noted are these: for EC50 / EC90: Zaire ebolavirus; for EC50: read-out: WT EBOV-Mayinga EC50 (uM); for EC90: read-out: WT EBOV-Mayinga EC90 (uM). The class given is cell-based, Ebola virus (EBOV).
Series [15] has as its system EBOV (strain kikwit). Description: microbe, parasite or virus in culture. The class given is cell-based, Ebola virus (EBOV).
For series [16], the system named is SUDV (strain Gulu). Description: microbe, parasite or virus in culture. The format is cell-based, Sudan virus (SUDV).

`N[C@H]1CC[C@H](NC(=O)C23CC4CC(CCl)(C2)CC(c2ccccc2)(C4)C3)CC1` (mixture of isomers) [Example E1, rac-trans-N-(4-aminocyclohexyl)-3-(chloromethyl)-5-phenyladamantane-1-carboxamide hydrochloride]: the EC50 (as a rule, the concentration giving half of the maximal effect) in series [1] was 0.034 µM; in series [4] it was greater than 1 µM; in series [5], 0.12 µM; in series [9] it was 0.56 µM. In addition, the “Percent parent compound remaining at 60 minutes in liver microsomes, Mouse” value (shortened to “Percent parent compound remaining … Mouse”) in [2] came to 69%. In addition, in series [3], the “Percent parent compound remaining at 60 minutes in liver microsomes, Human” value (shortened to “Percent parent compound remaining … Human”) is reported as 89%. Also, the “Percent parent compound remaining at 60 minutes in liver microsomes, Monkey” value (“Percent parent compound remaining … Monkey” for short) in series [6] is 72%. Further, the “Percent parent compound remaining at 60 minutes in liver microsomes, Guinea Pig” value (“Percent parent compound remaining … Guinea Pig” for short) in series [7] came to 100%. For the same compound, the CC50 in [8] stood at 13.8 µM.

For the compound `CCC=C1C2CC3(C(=S)N[C@H]4CC[C@H](N)CC4)CC1CC(c1ccccc1)(C2)C3` (relative stereo) [Example D2, trans-N-(4-aminocyclohexyl)-3-phenyl-6-propylideneadamantane-1-carbothioamide], the EC50 in [1] is 0.051 µM; in series [10] (Zaire ebolavirus, Vero, read-out: EBOV-Zaire EC50 (uM)), 2.6 µM; in series [11] (Sudan ebolavirus, Vero, read-out: SUDV-Gulu EC50 (uM)), 0.11 µM; in series [9] it was 0.072 µM. In [3], the “Percent parent compound remaining … Human” value is 100%. Besides, in series [10], the “EBOV-Zaire SI50 (CC50/EC50)” value is 3.3. For the same compound, in [11], the “SUDV-Gulu SI50 (CC50/EC50)” value is listed as 78. The “Percent parent compound remaining … Monkey” value in series [6] stood at 100%. Also, the “Percent parent compound remaining … Guinea Pig” value in series [7] was determined as 100%. In addition, the CC50 in series [8] turned out to be 1.78 µM.

As to `CC1C2CC3(C(=O)N[C@H]4CC[C@H](N)CC4)CC1CC(c1ccccc1)(C2)C3` (stereo partly drawn) [Example F1, trans-N-(4-aminocyclohexyl)-6-methyl-3-phenyladamantane-1-carboxamide], the EC50 in [1] is 0.027 µM; in [4], greater than 3 µM; in [5], 0.065 µM; in series [9], 0.21 µM. Further, the “Percent parent compound remaining at 60 minutes in liver microsomes, Dog” value in series [12] amounted to 82%. The “Percent parent compound remaining … Mouse” value in series [2] came out at 83%. The “Percent parent compound remaining … Human” value in series [3] was found to be 91%. For the same compound, in series [13], the “Percent parent compound remaining at 60 minutes in liver microsomes, Rat” value was determined as 99%. For the same compound, in series [6], the “Percent parent compound remaining … Monkey” value is 92%. Also, in series [7], the “Percent parent compound remaining … Guinea Pig” value was found to be 79%. Moreover, the CC50 in series [8] stood at 13.3 µM.

In the case of `CCC1C2CC3(C(=O)N[C@H]4CC[C@H](N)CC4)CC1CC(c1ccccc1)(C2)C3` (stereo partly drawn) [Example F2], the “WT EBOV-Mayinga SI50 (CC50/EC50)” value in series [14] is given as 706.84. Moreover, the “WT EBOV-Mayinga SI90 (CC50/EC90)” value in series [14] amounted to 209.99. The concentration giving a half-maximal response (EC50) was found to be 0.014 µM in series [14]; 0.011 µM in series [1]; 0.11 µM in series [15] (Zaire ebolavirus, HeLa, read-out: EBOV-Kikwit EC50 (uM)); 3.1 µM in [4]; 0.03 µM in series [5]; 0.039 µM in series [16] (Sudan ebolavirus, HeLa, read-out: SUDV-Gulu EC50 (uM)). Also, in series [9], the EC50 is 0.27 µM. Also, in [14], the EC90 (as a rule, the point of the concentration-response curve where the effect stands at 90%) came out at 0.048 µM. The “Percent parent compound remaining at 60 minutes in liver microsomes, Dog” value in [12] amounted to 80%. In addition, the “Percent parent compound remaining … Mouse” value in series [2] turned out to be 48%. Besides, in series [15], the “EBOV-Kikwit SI50 (CC50/EC50)” value was found to be 90.33. Besides, the “Percent parent compound remaining … Human” value in series [3] is reported as 85%. Moreover, in series [13], the “Percent parent compound remaining at 60 minutes in liver microsomes, Rat” value is reported as 86.5%. For the same compound, the “Percent parent compound remaining … Monkey” value in [6] is 100%. Further, in series [16], the “SUDV-Gulu SI50 (CC50/EC50)” value is reported as 291.26. Moreover, the “Percent parent compound remaining … Guinea Pig” value in [7] is recorded as 68%. The same compound registered a CC50 in [8] of 12.6 µM.

Regarding `CCCC1C2CC3(C(=O)N[C@H]4CC[C@H](N)CC4)CC1CC(c1ccccc1)(C2)C3` (stereo partly drawn) [Example F3], the EC50 in series [14] was roughly 0.008 µM; in series [1], 0.005 µM; in series [4], 1.6 µM; in series [5], 0.08 µM; in series [9], 0.39 µM. The 90% effect concentration (EC90) in series [14] is roughly 0.01 µM. Further, the “Percent parent compound remaining … Mouse” value in series [2] is 26%. Further, the “Percent parent compound remaining … Human” value in series [3] worked out at 91%. Also, in [6], the “Percent parent compound remaining … Monkey” value is given as 100%. Further, the “Percent parent compound remaining … Guinea Pig” value in series [7] was 48%. Also, the CC50 in series [8] turned out to be 4.65 µM.
